Experiment [1] relates to human acute monocytic leukemia cell line MV-4-11. The experiment is described as follows: Assay 2: cell proliferation assay (ATP quantitation, CellTiter-Glo), MV-4-11. The format is cell-based. As to conditions: MV-4-11 cells. In outline:
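Read-out is CellTiter-Glo luminescence quantifying ATP. Compound exposure lasted 72 h at 37° C., 5% CO2, with 1.67×10^4 MV-4-11 cells per well in 10% FBS medium, alongside HL-60 toxicity-control cells.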

The target in experiment [2] is T1, biotinylated wild-type menin and MLL-AF9 fusion protein (menin/MLL binding) (Homo sapiens, UniProt O00255).
T1 construct: made in house; host or cells: menin: E. coli; MLL-AF9-FLAG: HEK293 cells, used as cleared lysate
T1 sequence (O00255 1-610): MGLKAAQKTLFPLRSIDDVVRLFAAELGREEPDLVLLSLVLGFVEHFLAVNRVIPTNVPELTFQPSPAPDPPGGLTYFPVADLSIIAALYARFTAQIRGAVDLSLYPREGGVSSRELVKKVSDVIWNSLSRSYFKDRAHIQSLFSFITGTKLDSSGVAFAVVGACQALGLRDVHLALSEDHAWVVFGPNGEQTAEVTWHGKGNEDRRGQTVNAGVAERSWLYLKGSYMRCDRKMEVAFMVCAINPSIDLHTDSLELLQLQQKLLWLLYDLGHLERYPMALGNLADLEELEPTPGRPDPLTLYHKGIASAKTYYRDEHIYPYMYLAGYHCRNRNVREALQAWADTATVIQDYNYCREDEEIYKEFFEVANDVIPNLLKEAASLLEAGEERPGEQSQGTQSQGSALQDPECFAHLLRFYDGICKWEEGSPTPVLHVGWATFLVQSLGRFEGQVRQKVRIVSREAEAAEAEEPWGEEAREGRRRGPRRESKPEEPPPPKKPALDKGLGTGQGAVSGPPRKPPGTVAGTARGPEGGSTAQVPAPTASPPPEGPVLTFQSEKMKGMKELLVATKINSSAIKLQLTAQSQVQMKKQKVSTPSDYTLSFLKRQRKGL
The experiment is described as follows: Assay 1: menin/MLL binding AlphaLISA assay, wild-type menin. The settings on record: Table 30; column head does not say wild-type or mutated menin. In outline: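 Compound was preincubated 30 min at room temperature with biotinylated menin (5 nM) and MLL-AF9-FLAG lysate from HEK293 cells, pH 7.4 buffer with 5% DMSO and DTT. Bead-based Alpha signal after 60 min with streptavidin donor and anti-FLAG acceptor beads; four-parameter logistic fit gave IC50.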
In general terms: In Alpha technology, singlet oxygen from a donor bead excites a nearby acceptor bead.

Some results are limits rather than exact numbers.

EC50 and IC50 data for 20 compounds are collected here from US12312359B2 (Vitae Pharmaceuticals, LLC, priority 2016, dated 2025).

In general, EC50 refers to the midpoint of the concentration-response curve. A word on the IC50: it is the concentration at which inhibition is half-maximal. Low values mean greater potency, high ones weaker potency. As to `CC(C)n1nccc1-c1cc(F)ccc1Oc1cncnc1N1CCC2(CCN(Cc3ccc4[nH]c(=O)[nH]c4c3)C2)C1` (single isomer, unassigned) [Example 197B, 5-((7-(5-(4-fluoro-2-(1-isopropyl-1H-pyrazol-5-yl)phenoxy)pyrimidin-4-yl)-2,7-diazaspiro[4.4]nonan-2-yl)methyl)-1,3-dihydro-2H-benzo[d]imidazol-2-one], the EC50 in experiment [1] (72 h) is under 0.1 µM. In experiment [2], the IC50 was under 0.1 µM.

For `CC(C)n1nccc1-c1cc(F)ccc1Oc1cncnc1N1CCC2(CCN(C(=O)C(N)C3CCCCC3)C2)C1` (single isomer, unassigned) [Example 206A, 2-amino-2-cyclohexyl-1-(7-(5-(4-fluoro-2-(1-isopropyl-1H-pyrazol-5-yl)phenoxy)pyrimidin-4-yl)-2,7-diazaspiro[4.4]nonan-2-yl)ethanone], in experiment [1] (Homo sapiens, MV4-11, 72 h), the EC50 is 0.1 to 1 µM. In experiment [2], this compound displayed an IC50 of under 0.1 µM.

In turn, `CC(C)N(C(=O)c1cc(F)ccc1Nc1cncnc1N1CCC2(CC1)CN(C1CCC(NS(C)(=O)=O)CC1)C2)C(C)C` (single isomer, unassigned) [Example 248A, 5-fluoro-N,N-diisopropyl-2-((4-(2-(4-(methylsulfonamido)cyclohexyl)-2,7-diazaspiro[3.5]nonan-7-yl)pyrimidin-5-yl)amino) benzamide] registered an EC50 in experiment [1] (Homo sapiens, MV4-11, 72 h) of 0.1 to 1 µM. In experiment [2], this compound returned an IC50 of under 0.1 µM.

Turning to `CC(C)N(C(=O)c1cc(F)ccc1Nc1cncnc1N1CCC2(CC1)CN(C1CCC(NS(C)(=O)=O)CC1)C2)C(C)C` (single isomer, unassigned) [Example 248B, 5-fluoro-N,N-diisopropyl-2-((4-(2-(4-(methylsulfonamido)cyclohexyl)-2,7-diazaspiro[3.5]nonan-7-yl)pyrimidin-5-yl)amino) benzamide], the EC50 in experiment [1] (72 h) lay in the range of 0.1 to 1 µM. Moreover, in experiment [2], the IC50 was under 0.1 µM.

For `N#Cc1ccc(-c2cc(F)ccc2Oc2cncnc2N2CCC3(CCC(N)(Cc4ccccc4)C3)C2)c(C2CC2)c1` (single isomer, unassigned) [Example 250B, 2′-((4-(7-amino-7-benzyl-2-azaspiro[4.4]nonan-2-yl)pyrimidin-5-yl)oxy)-2-cyclopropyl-5′-fluoro-[1,1′-biphenyl]-4-carbonitrile], the EC50 in experiment [1] (Homo sapiens, MV4-11, 72 h) is at least 1 µM. The IC50 in experiment [2] was under 0.1 µM.

For the compound `CCN(C(=O)c1cc(F)ccc1Oc1cncnc1N1CCC2(CCN(Cc3ccc4c(c3)[nH]c(=O)n4CCO)C2)C1)C(C)C` (stereo not shown) [Example 4, N-ethyl-5-fluoro-2-((4-(7-((1-(2-hydroxyethyl)-2-oxo-2,3-dihydro-1H-benzo[d]imidazol-5-yl)methyl)-2,7-diazaspiro[4.4]nonan-2-yl)pyrimidin-5-yl)oxy)-N-isopropylbenzamide], the EC50 in experiment [1] (Homo sapiens, MV4-11, 72 h) is under 0.1 µM. The compound further yielded an IC50 in experiment [2] of under 0.1 µM.

`CC(C)N(CCO)C(=O)c1cc(F)ccc1Oc1cncnc1N1CCC2(CCN(Cc3ccc4[nH]c(=O)[nH]c4c3)C2)C1` (stereo not shown) [Example 5, 5-fluoro-N-(2-hydroxyethyl)-N-isopropyl-2-((4-(7-((2-oxo-2,3-dihydro-1H-benzo[d]imidazol-5-yl)methyl)-2,7-diazaspiro[4.4]nonan-2-yl)pyrimidin-5-yl)oxy)benzamide] displayed an EC50 in experiment [1] (Homo sapiens, MV4-11, 72 h) of under 0.1 µM. Moreover, in experiment [2], the IC50 was under 0.1 µM.

In turn, `CC(C)N(C(=O)c1cc(F)ccc1Oc1cncnc1N1CC2(CCN(C[C@H]3CC[C@H](NS(C)(=O)=O)CC3)CC2)C1)C(C)C` [Example 6A, 5-fluoro-N,N-diisopropyl-2-((4-(7-(((1r,4r)-4-(methylsulfonamido)cyclohexyl)methyl)-2,7-diazaspiro[3.5]nonan-2-yl)pyrimidin-5-yl)oxy)benzamide] had an EC50 in experiment [1] (Homo sapiens, MV4-11, 72 h) of under 0.1 µM. The IC50 in experiment [2] was under 0.1 µM.

As to `CC(C)N(C(=O)c1cc(F)ccc1Oc1cncnc1N1CC2(CCN(C[C@H]3CC[C@@H](NS(C)(=O)=O)CC3)CC2)C1)C(C)C` [Example 6B, 5-fluoro-N,N-diisopropyl-2-((4-(7-(((1s,4s)-4-(methylsulfonamido)cyclohexyl)methyl)-2,7-diazaspiro[3.5]nonan-2-yl)pyrimidin-5-yl)oxy)benzamide], the EC50 in experiment [1] (Homo sapiens, MV4-11, 72 h) was under 0.1 µM. Further, the IC50 in experiment [2] was under 0.1 µM.

Take `NC(c1cc(F)ccc1Oc1cncnc1N1CCC2(CCN(Cc3ccc4[nH]c(=O)[nH]c4c3)C2)C1)C1CCCC1` (stereo not shown) [Example 7, 5-((7-(5-(2-(amino(cyclopentyl)methyl)-4-fluorophenoxy)pyrimidin-4-yl)-2,7-diazaspiro[4.4]nonan-2-yl)methyl)-1,3-dihydro-2H-benzo[d]imidazol-2-one]: the EC50 in experiment [1] (Homo sapiens, MV4-11, 72 h) lay in the range of 0.1 to 1 µM. The same compound had an IC50 in experiment [2] of under 0.1 µM.

In turn, `CN(C)C(c1cc(F)ccc1Oc1cncnc1N1CCC2(CCN(Cc3ccc4[nH]c(=O)[nH]c4c3)C2)C1)C1CCCC1` (stereo not shown) [Example 8, 5-((7-(5-(2-(cyclopentyl(dimethylamino)methyl)-4-fluorophenoxy)pyrimidin-4-yl)-2,7-diazaspiro[4.4]nonan-2-yl)methyl)-1,3-dihydro-2H-benzo[d]imidazol-2-one] yielded an EC50 in experiment [1] (Homo sapiens, MV4-11, 72 h) of under 0.1 µM. The same compound came in with a concentration for half-maximal inhibition (IC50) in experiment [2] of under 0.1 µM.

With `CC(=O)NC(c1cc(F)ccc1Oc1cncnc1N1CCC2(CCN(Cc3ccc4[nH]c(=O)[nH]c4c3)C2)C1)C1CCCC1` (stereo not shown) [Example 9, N-(cyclopentyl(5-fluoro-2-((4-(7-((2-oxo-2,3-dihydro-1H-benzo[d]imidazol-5-yl)methyl)-2,7-diazaspiro[4.4]nonan-2-yl)pyrimidin-5-yl)oxy)phenyl)methyl)acetamide], the 50% effective concentration (EC50) in experiment [1] (Homo sapiens, MV4-11, 72 h) is at least 1 µM. Also, in experiment [2], the IC50 was under 0.1 µM.

Turning to `CC(C)C(O)c1cc(F)ccc1Oc1cncnc1N1CCC2(CCN(Cc3ccc4c(c3)NC(=O)C4(C)C)C2)C1` (stereo not shown) [Example 10, 6-((7-(5-(4-fluoro-2-(1-hydroxy-2-methylpropyl)phenoxy)pyrimidin-4-yl)-2,7-diazaspiro[4.4]nonan-2-yl)methyl)-3,3-dimethylindolin-2-one], the EC50 in experiment [1] (Homo sapiens, MV4-11, 72 h) was at least 1 µM. Also, the IC50 in experiment [2] was under 0.1 µM.

Regarding `CC(C)C(=O)c1cc(F)ccc1Oc1cncnc1N1CCC2(CCN(Cc3ccc4c(c3)NC(=O)C4(C)C#N)C2)C1` (stereo not shown) [Example 11, 6-((7-(5-(4-fluoro-2-isobutyrylphenoxy)pyrimidin-4-yl)-2,7-diazaspiro[4.4]nonan-2-yl)methyl)-3-methyl-2-oxoindoline-3-carbonitrile], the EC50 in experiment [1] (Homo sapiens, MV4-11, 72 h) was under 0.1 µM. For the same compound, the IC50 in experiment [2] is under 0.1 µM.

As for `CC(C)N(C(=O)c1cc(F)ccc1Oc1cncnc1N1CC2(CCN(C(=O)CCc3ccc(F)cc3)C2)C1)C(C)C` [Example 12, 5-fluoro-2-((4-(6-(3-(4-fluorophenyl)propanoyl)-2,6-diazaspiro[3.4]octan-2-yl)pyrimidin-5-yl)oxy)-N,N-diisopropylbenzamide], the EC50 in experiment [1] (Homo sapiens, MV4-11, 72 h) fell in the range of 0.1 to 1 µM. In addition, the 50% inhibitory concentration (IC50) in experiment [2] was under 0.1 µM.

As to `CC(C)c1ccccc1-c1cc(F)ccc1Nc1cncnc1N1CC2(CN(CC3CCOCC3)C2)C1` [Example 15, N-(5-fluoro-2′-isopropyl-[1,1′-biphenyl]-2-yl)-4-(6-((tetrahydro-2H-pyran-4-yl)methyl)-2,6-diazaspiro[3.3]heptan-2-yl)pyrimidin-5-amine], the EC50 in experiment [1] (Homo sapiens, MV4-11, 72 h) was in the range of 0.1 to 1 µM. In addition, the concentration for half-maximal inhibition (IC50) in experiment [2] was under 0.1 µM.

Compound `CC(C)N(C(=O)c1cc(F)ccc1Nc1cncnc1N1CCC2(CC1)CN(CC(C)(C)O)C2)C(C)C` [Example 16, 5-fluoro-2-((4-(2-(2-hydroxy-2-methylpropyl)-2,7-diazaspiro[3.5]nonan-7-yl)pyrimidin-5-yl)amino)-N,N-diisopropylbenzamide] showed an EC50 in experiment [1] (Homo sapiens, MV4-11, 72 h) of 0.1 to 1 µM. Besides, the IC50 in experiment [2] is under 0.1 µM.

In the case of `CC(C)c1ncncc1-c1cc(F)ccc1Oc1cncnc1N1CC2(CC(NCc3ccc(F)cc3)CO2)C1` (stereo not shown) [Example 18, 2-(5-(4-fluoro-2-(4-isopropylpyrimidin-5-yl)phenoxy)pyrimidin-4-yl)-N-(4-fluorobenzyl)-5-oxa-2-azaspiro[3.4]octan-7-amine], the EC50 in experiment [1] (Homo sapiens, MV4-11, 72 h) is 0.1 to 1 µM. The IC50 in experiment [2] is under 0.1 µM.

`CC(C)c1ccccc1-c1cc(F)ccc1Oc1cncnc1N1CC2(CC(NCc3ccc(C#N)cc3)CO2)C1` (stereo not shown) [Example 19, 4-(((2-(5-((5-fluoro-2′-isopropyl-[1,1′-biphenyl]-2-yl)oxy)pyrimidin-4-yl)-5-oxa-2-azaspiro[3.4]octan-7-yl)amino)methyl)benzonitrile] yielded an EC50 in experiment [1] (Homo sapiens, MV4-11, 72 h) of 0.1 to 1 µM. This compound showed an IC50 in experiment [2] of under 0.1 µM.

The compound `Cn1c(=O)[nH]c2ccc(CN3CCC4(CCC(c5ncncc5Oc5ccc(F)cc5Cl)C4)C3)cc21` (stereo not shown) [Example 27, 6-((7-(5-(2-chloro-4-fluorophenoxy)pyrimidin-4-yl)-2-azaspiro[4.4]nonan-2-yl)methyl)-1-methyl-1H-benzo[d]imidazol-2(3H)-one] came in with an EC50 in experiment [1] (Homo sapiens, MV4-11, 72 h) of at least 1 µM. In experiment [2], the half-maximal inhibitory concentration (IC50) is under 0.1 µM.
